Values quoted from earlier work, collected in patent US20070128633A1, “Cell-free protein expression systems and methods of use thereof” (ChemBridge Research Laboratories, Inc., priority 2005, published 2007).

How the values were obtained:
streptavidin = streptavidin (Streptomyces avidinii, UniProt P22629); details: tag fused to the C- or N-termini of a recombinant protein; Skerra and Schmidt (2000)
[1] = target: KIT active site mutation D816V (Homo sapiens, UniProt P10721, D816V); details: sporadic adult human mastocytosis, Ma et al. (2002)
[2] = tested on: KIT variants containing 2 out of these 6 mutations; details: KIT variants with 2 of 6 catalytic domain point mutations found in seminomas; Kemmer et al. (2004)

Chain of KIT active site mutation D816V (P10721 26-976 D816V): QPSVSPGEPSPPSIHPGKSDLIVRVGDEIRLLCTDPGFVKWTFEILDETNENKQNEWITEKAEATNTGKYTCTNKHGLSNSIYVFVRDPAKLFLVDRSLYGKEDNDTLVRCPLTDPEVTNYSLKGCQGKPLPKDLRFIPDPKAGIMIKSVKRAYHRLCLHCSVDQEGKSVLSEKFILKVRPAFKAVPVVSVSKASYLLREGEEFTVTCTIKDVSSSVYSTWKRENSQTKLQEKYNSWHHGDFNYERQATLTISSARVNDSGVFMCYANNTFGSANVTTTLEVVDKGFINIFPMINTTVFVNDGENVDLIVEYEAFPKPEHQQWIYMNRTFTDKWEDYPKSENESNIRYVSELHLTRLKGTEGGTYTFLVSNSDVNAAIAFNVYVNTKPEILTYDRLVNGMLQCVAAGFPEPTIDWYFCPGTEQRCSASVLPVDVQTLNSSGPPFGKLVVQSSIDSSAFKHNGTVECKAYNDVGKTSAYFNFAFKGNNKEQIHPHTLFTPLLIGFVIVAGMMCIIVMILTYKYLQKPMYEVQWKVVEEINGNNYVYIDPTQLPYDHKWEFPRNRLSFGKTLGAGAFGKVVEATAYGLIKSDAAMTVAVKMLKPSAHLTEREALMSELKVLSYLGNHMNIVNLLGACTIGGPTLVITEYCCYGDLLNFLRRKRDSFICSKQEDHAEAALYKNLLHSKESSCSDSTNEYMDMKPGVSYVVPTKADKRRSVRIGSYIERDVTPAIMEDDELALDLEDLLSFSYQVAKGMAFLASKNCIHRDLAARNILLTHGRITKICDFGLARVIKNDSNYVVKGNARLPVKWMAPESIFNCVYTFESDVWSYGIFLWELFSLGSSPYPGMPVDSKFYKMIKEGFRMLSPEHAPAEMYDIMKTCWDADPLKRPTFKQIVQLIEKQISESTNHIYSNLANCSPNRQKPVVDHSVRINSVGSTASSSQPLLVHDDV

| response to imatinib treatment [1] | Compound | Kd (streptavidin) [µM] | inhibition of KIT variants [2] |
| --- | --- | --- | --- |
| – | WSHPQFEK [Strep-Tag II] | 18 | – |
| resistance | Cc1ccc(NC(=O)c2ccc(CN3CCN(C)CC3)cc2)cc1Nc1nccc(-c2cccnc2)n1 [imatinib] | – | not inhibited |
